Publication PMC9616786, “Structure and function of the N-terminal extension of the formin INF2” (Cellular and Molecular Life Sciences, 2022)

Biological target: T1, purified CaM from bovine brain (Bos taurus, UniProt P62157)
T1 construct: Calmodulin from bovine brain; purchased Sigma-Aldrich Cat#208694; host or cells: bovine brain (tissue-purified)
Assay: Surface plasmon resonance, equilibrium binding of CaM to immobilized INF2 peptides
Conditions: SPR, in the presence of Ca2+ (1 mM CaCl2), 25 °C; Fig. 4B-D, Fig. S3F
Source text: For use in surface plasmon resonance analysis, the peptide corresponding to amino acids 2-19 of human INF2 and similar peptides with replacements in the W11, L14 and L18 residues were synthesized in an automated multiple peptide synthesizer (Multipep, Intavis, Köln, Germany) in the Proteomics Facility of the Centro Nacional de Biotecnología (CSIC, Madrid). The INF2 2–36 peptide was obtained as a bespoke product with the same modifications from pepMic (Suzhou, China). These peptides contained two G residues at its N terminus to separate the INF2 sequence from an additional N-terminal end K residue, which was biotinylated in the ε-amino group. For use in NMR studies, the INF2 2–36 and 2-19 peptides were synthesized to order, without any modification, by CASLO ApS (Denmark). All the peptides were synthesized using the solid-phase synthetic procedures and standard Fmoc [N-(9-fluorenyl)methoxycarbonyl] chemistry, and then underwent reverse-phase HPLC purification.
All surface plasmon resonance experiments were carried out at 25 °C in a Biacore 3000 (Cytiva) robotic biosensor. Analyses were performed using HBSP (10 mM HEPES pH 7.4, 150 mM NaCl, 0.005% surfactant P20) supplemented with 1 mM CaCl2 as running buffer and for the dilution of analytes and ligands. Biotinylated peptides were individually immobilized on a streptavidin-coated sensor chip in flow cells 2, 3 and 4 at a flow rate of 10 µl/min (20–50 RU captured). The empty flow cell 1 was used as a control for non-specific binding and bulk effects. Purified CaM was injected at different concentrations ranging from 13.2 nM to 9.6 µM in duplicate, at a flowrate of 50 µl/min, with an association time of 60 s followed by dissociation for 60 s. After that, the sensor chip was regenerated by injection of 10 mM glycine–HCl, pH 1.7, with a contact time of 12 s. […] Sensorgrams with different concentrations of CaM were overlaid, aligned and analyzed with BIAevaluation Software 4.1, using the double-reference method. […]

Row | Sequence | affinity / interaction with CaM relative to the intact 2-19 peptide (in words)
1 | KGGSVKEGAQRKWAAAKEKAG [L14L18A 2-19 peptide, 2-19 INF2 peptide with the double L14L18A mutation] | reduced affinity
2 | KGGSVKEGAQRKAAALKEKLG [Peptide W11A, 2-19 INF2 peptide with the W11A mutation] | undetectable
3 | KGGSVKEGAQRKAAAAKEKAG [Peptide W11L14L18A, 2-19 INF2 peptide with the triple W11L14L18A mutation] | undetectable
